# The supplement of paper PMC10307832
# Key:
# Test in all cases: relative viability (nuclei count vs DMSO), 5 days (fraction); higher = more cells survive
# [1] = tested on: NCI-H1975
# Method in brief: (§1)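 Relative viability was taken as the ratio of nuclei in treated wells to nuclei in vehicle wells. Lung cancer cell lines in 1536-well plates received compounds by pin tool one day after seeding, either one drug alone or a fixed anchor-drug dose plus five library-drug doses (not always all listed) in √10 steps. Nuclei were counted on 4× images after 5 days of treatment, and values are medians of duplicate plates.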
# [2] = tested on: NCI-H1651
# Method in brief: as §1
# [3] = tested on: NCI-H1734
# Method in brief: as §1
# [4] = tested on: EMC-BAC-2
# Method in brief: as §1
# [5] = tested on: NCI-H661
# Method in brief: as §1
# [6] = tested on: ABC-1
# Method in brief: as §1
# [7] = tested on: EPLC-272H
# Method in brief: as §1
# [8] = tested on: NCI-H1792
# Method in brief: as §1
# [9] = tested on: NCI-H647
# Method in brief: as §1
# [10] = tested on: NCI-H1915
# Method in brief: as §1
# [11] = tested on: RERF-LC-KJ
# Method in brief: as §1
smiles,measurement,setting,value
O=C(O)CCCCC(CCSCc1ccccc1)SCc1ccccc1 (configuration not stated) [CPI-613] + CC(C)C[C@H](NC(=O)[C@H](Cc1ccccc1)NC(=O)c1cnccn1)B(O)O [Bortezomib] (partner 0.002 µM),relative viability,[1]; first compound 5 µM,0.445
same,relative viability,[1]; first compound 15.81 µM,0.448
same,relative viability,[1]; first compound 50 µM,0.394
same,relative viability,[1]; first compound 158.11 µM,0.174
same,relative viability,[1]; first compound 500 µM,0.0487
same,relative viability,[2]; first compound 5 µM,0.91
same,relative viability,[2]; first compound 15.81 µM,0.9
same,relative viability,[2]; first compound 50 µM,0.866
same,relative viability,[2]; first compound 158.11 µM,0.914
same,relative viability,[2]; first compound 500 µM,1
same,relative viability,[3]; first compound 5 µM,0.858
same,relative viability,[3]; first compound 15.81 µM,0.846
same,relative viability,[3]; first compound 50 µM,0.877
same,relative viability,[3]; first compound 158.11 µM,0.278
same,relative viability,[3]; first compound 500 µM,0.101
same,relative viability,[4]; first compound 5 µM,1.06
same,relative viability,[4]; first compound 15.81 µM,0.993
same,relative viability,[4]; first compound 50 µM,1.07
same,relative viability,[4]; first compound 158.11 µM,0.936
same,relative viability,[4]; first compound 500 µM,0.4
same,relative viability,[5]; first compound 5 µM,0.749
same,relative viability,[5]; first compound 15.81 µM,0.66
same,relative viability,[5]; first compound 50 µM,0.85
same,relative viability,[5]; first compound 158.11 µM,0.709
same,relative viability,[5]; first compound 500 µM,0.709
same,relative viability,[6]; first compound 5 µM,0.305
same,relative viability,[6]; first compound 15.81 µM,0.298
same,relative viability,[6]; first compound 50 µM,0.302
same,relative viability,[6]; first compound 158.11 µM,0.232
same,relative viability,[6]; first compound 500 µM,0.242
same,relative viability,[7]; first compound 5 µM,0.937
same,relative viability,[7]; first compound 15.81 µM,0.859
same,relative viability,[7]; first compound 50 µM,1.1
same,relative viability,[7]; first compound 158.11 µM,0.778
same,relative viability,[7]; first compound 500 µM,0.93
same,relative viability,[8]; first compound 5 µM,0.889
same,relative viability,[8]; first compound 15.81 µM,0.886
same,relative viability,[8]; first compound 50 µM,0.996
same,relative viability,[8]; first compound 158.11 µM,0.836
same,relative viability,[8]; first compound 500 µM,0.893
same,relative viability,[9]; first compound 5 µM,0.861
same,relative viability,[9]; first compound 15.81 µM,0.8
same,relative viability,[9]; first compound 50 µM,0.962
same,relative viability,[9]; first compound 158.11 µM,0.0678
same,relative viability,[9]; first compound 500 µM,0.0092
same,relative viability,[10]; first compound 5 µM,0.992
same,relative viability,[10]; first compound 15.81 µM,0.99
same,relative viability,[10]; first compound 50 µM,0.946
same,relative viability,[10]; first compound 158.11 µM,0.799
same,relative viability,[10]; first compound 500 µM,0.746
same,relative viability,[11]; first compound 5 µM,1.1
same,relative viability,[11]; first compound 15.81 µM,1.13
